Reference: patent US5948814A, “Genistein for the treatment of cystic fibrosis” (priority 1998, dated 1999)
Like-named read-outs stand apart in the source and are kept apart here.

Experiments:
ΔF508-CFTR [1] = biological target: T1, ΔF508-CFTR (Homo sapiens, UniProt P13569, DEL508-508); test: Other protein tyrosine kinase inhibitors, activation of ΔF508-CFTR; assay type: cell-based; design: expressed in transfected cells; host or cells: NIH/3T3 cells, stably transfected (NIH/3T3-ΔF508, gift of Dr. Richard Mulligan)
histidine kinase = conditions: cited from earlier work
ΔF508-CFTR [2] = biological target: T1, ΔF508-CFTR; test: Forskolin-dependent I- efflux, NIH/3T3-ΔF508 cells
Description: FIG. 1 is a graph representing the dose-responses relationship for forskolin-dependent I^- efflux. Peak rates of I^- efflux in the presence (closed symbols) or absence (open symbols) of 50 μM genistein were obtained with NIH/3T3-cystic fibrosis transmembrane conductance regulator (NIH/3T3-CFTR) (circles) and NTH/3T3-Δphenylalanine 508 (ΔF508) cells (triangles). NIH/3T3-CFTR cells are cultured at 37° C. NIH/3T3-Δ508 cells are cultured at 27° C. for 3 days prior to assay. Data are mean values±SE (n>5). Lines were fit by nonlinear least squares.
FIG. 2 is a bar graph showing the effects of stimulation of ΔF508-CFTR by forskolin and genistein. Peak rates of I^- efflux were measured with NIH/3T3-ΔF508cells that were cultured at 37° C. (open bars) or at 27° C. for 3 days prior to assay (filled bars). I^- efflux was assayed without added agonist as a control and with 1 μM forskolin (fsk), 50 μM genistein (gen), or 1 μM forskolin plus 50 μM genistein (fsk+gen). Error bars are SE for n>7.
(§1) Cell culture: NIH/3T3-CFTR, NIH/3T3-ΔF508, and NIH/3T3 mock cells (generous gifts from Dr. Richard Mulligan of Children's Hospital and Medical Center, Harvard Medical School) were grown as described [Bradbury et al., 1992] at 37° C. and 5% CO2 in Dulbecco's modified Eagle's medium-H21 supplemented with 10% new-born calf serum, 4 mM glutamine, 25 mM glucose, 100 μg/ml penicillin, 100 μg/ml streptomycin, and 50 μg/ml gentamicin. Cells were maintained in T75 flasks, passaged at 90-95% confluency, and split one to four. For measurements of I^- efflux and in vivo phosphorylation, cells were seeded onto 35-mm dishes at […]. For patch-clamp experiments, cells were grown on coverglass chips in 35-mm culture dishes. Media were replaced 24 hours after plating and thereafter every 48 hours. In all cases, media were changed on the day before I^- efflux studies, NIH/3T3-ΔF508 cells were transferred to 27° C. three days before use, and 1 day prior to study, media were supplemented with 5 mM butyrate. For patch-clamp studies, where a constant level of functional ΔF508-CFTR was not essential, NIH/3T3-ΔF508 cells were cultured at 27° C. for 2-6 days before use. Calu-3 cells were grown and maintained as described by Hunter [1995].
(§2) I^- efflux: I^- efflux was measured as described previously [Reenstra et al., 1996]. Briefly, cells were incubated for 30 minutes with 37° C. I^- efflux buffer [(in mM) 141 NaCl, 4 KCl, 1 KH2 PO4, 0.9 MgCl2, 1.7 CaCl2. 10 N-2hydroxyethylpiperazine-N'-2-ethanesulfonic acid (HEPES), 25 glucose pH 7.4] containing 5 μCi/ml carrier-free ^125 I^- (sodium salt). Extracellular ^125 I^- was removed by washing four times with efflux buffer, and the rate of loss of intracellular ^125 I^- was determined by replacing the bathing solution with 37° C. efflux buffer every 60 seconds for 12 minutes. Time-dependent rates of ^125 I^- efflux are calculated from R=ln(^125 I^-t1 /^125 I^-t2)/(t1-t2), where ^125 I^-t is the intracellular ^125 I^- at time t and t1 and t2 are successive time points. Dose-response curves were obtained from peak rates of 125I^- efflux by nonlinear least squares fitting to R=[Ro +Rmx ·([fsk]/K1/2)]/[1+([fsk]/K1/2)], where Ro and Rmx are the rates of ^125 I efflux at zero and infinite concentration of forskolin (fsk), and K1/2 is the concentration of agonist that gives a half-maximal change.
To investigate effects of genistein on CFTR activity, the rates of I^- efflux were measured from stably transfected NIH/3T3 cells expressing wt- and ΔF508-CFTR (NIH/33-CFTR and NIH/3T3-ΔF508 cells, respectively). […] To increase ΔF508-CFTR channel activity, NIH/3T3-ΔF508 cells were cultured at 27° C. for 3 days [Denning et al., 1992].

ΔF508-CFTR [3] = biological target: T1, ΔF508-CFTR; test: Patch cramming, ΔF508-CFTR patch excised and crammed into NIH/3T3-CFTR cell; assay type: cell-based; design: expressed in transfected cells; host or cells: NIH/3T3 cells, stably transfected (NIH/3T3-ΔF508, gift of Dr. Richard Mulligan); conditions: ΔF508-CFTR crammed into NIH/3T3-CFTR cell; 10 μM forskolin, 50 μM genistein; n=2
From the text: (§3) Downward deflections represent channel opening.

CFTR = test: In vivo phosphorylation of CFTR (32P) versus I- efflux, NIH/3T3-CFTR cells; assay type: cell-based; conditions: 50 μM genistein; 0-10 μM forskolin; all phosphorylation levels
Description: as §2

[4] = system: mock-transfected NIH/3T3 cells; test: I- efflux, mock-transfected NIH/3T3 cells; assay type: cell-based
Description: as §1
I^- efflux: I^- efflux was measured as described previously [Reenstra et al., 1996]. Briefly, cells were incubated for 30 minutes with 37° C. I^- efflux buffer [(in mM) 141 NaCl, 4 KCl, 1 KH2 PO4, 0.9 MgCl2, 1.7 CaCl2. […] Extracellular ^125 I^- was removed by washing four times with efflux buffer, and the rate of loss of intracellular ^125 I^- was determined by replacing the bathing solution with 37° C. efflux buffer every 60 seconds for 12 minutes. Time-dependent rates of ^125 I^- efflux are calculated from R=ln(^125 I^-t1 /^125 I^-t2)/(t1-t2), where ^125 I^-t is the intracellular ^125 I^- at time t and t1 and t2 are successive time points. […]
To investigate effects of genistein on CFTR activity, the rates of I^- efflux were measured from stably transfected NIH/3T3 cells expressing wt- and ΔF508-CFTR (NIH/33-CFTR and NIH/3T3-ΔF508 cells, respectively). […]

wt-CFTR [5] = biological target: T2, wt-CFTR (Homo sapiens, UniProt P13569); design: expressed in transfected cells; host or cells: pooled: Calu-3 (endogenous, n=2); conditions: cited from earlier work
wt-CFTR [6] = biological target: T2, wt-CFTR; assay type: cell-based; design: expressed in transfected cells; conditions: 50 μM genistein on forskolin; HEK293; n=10
From the text: Transient expression of wt-CFTR in HEK293 cells: The pRBG4 vector containing wt-CFTR cDNA is a generous gift from Drs. Kevin Gunderson and Ron Kopito of Stanford University. HEK293 cells were transfected with the calcium phosphate method as described previously [Gunderson et al., 1994].
as §3

T1 sequence (P13569 with tags, fused parts or gaps DEL508-508): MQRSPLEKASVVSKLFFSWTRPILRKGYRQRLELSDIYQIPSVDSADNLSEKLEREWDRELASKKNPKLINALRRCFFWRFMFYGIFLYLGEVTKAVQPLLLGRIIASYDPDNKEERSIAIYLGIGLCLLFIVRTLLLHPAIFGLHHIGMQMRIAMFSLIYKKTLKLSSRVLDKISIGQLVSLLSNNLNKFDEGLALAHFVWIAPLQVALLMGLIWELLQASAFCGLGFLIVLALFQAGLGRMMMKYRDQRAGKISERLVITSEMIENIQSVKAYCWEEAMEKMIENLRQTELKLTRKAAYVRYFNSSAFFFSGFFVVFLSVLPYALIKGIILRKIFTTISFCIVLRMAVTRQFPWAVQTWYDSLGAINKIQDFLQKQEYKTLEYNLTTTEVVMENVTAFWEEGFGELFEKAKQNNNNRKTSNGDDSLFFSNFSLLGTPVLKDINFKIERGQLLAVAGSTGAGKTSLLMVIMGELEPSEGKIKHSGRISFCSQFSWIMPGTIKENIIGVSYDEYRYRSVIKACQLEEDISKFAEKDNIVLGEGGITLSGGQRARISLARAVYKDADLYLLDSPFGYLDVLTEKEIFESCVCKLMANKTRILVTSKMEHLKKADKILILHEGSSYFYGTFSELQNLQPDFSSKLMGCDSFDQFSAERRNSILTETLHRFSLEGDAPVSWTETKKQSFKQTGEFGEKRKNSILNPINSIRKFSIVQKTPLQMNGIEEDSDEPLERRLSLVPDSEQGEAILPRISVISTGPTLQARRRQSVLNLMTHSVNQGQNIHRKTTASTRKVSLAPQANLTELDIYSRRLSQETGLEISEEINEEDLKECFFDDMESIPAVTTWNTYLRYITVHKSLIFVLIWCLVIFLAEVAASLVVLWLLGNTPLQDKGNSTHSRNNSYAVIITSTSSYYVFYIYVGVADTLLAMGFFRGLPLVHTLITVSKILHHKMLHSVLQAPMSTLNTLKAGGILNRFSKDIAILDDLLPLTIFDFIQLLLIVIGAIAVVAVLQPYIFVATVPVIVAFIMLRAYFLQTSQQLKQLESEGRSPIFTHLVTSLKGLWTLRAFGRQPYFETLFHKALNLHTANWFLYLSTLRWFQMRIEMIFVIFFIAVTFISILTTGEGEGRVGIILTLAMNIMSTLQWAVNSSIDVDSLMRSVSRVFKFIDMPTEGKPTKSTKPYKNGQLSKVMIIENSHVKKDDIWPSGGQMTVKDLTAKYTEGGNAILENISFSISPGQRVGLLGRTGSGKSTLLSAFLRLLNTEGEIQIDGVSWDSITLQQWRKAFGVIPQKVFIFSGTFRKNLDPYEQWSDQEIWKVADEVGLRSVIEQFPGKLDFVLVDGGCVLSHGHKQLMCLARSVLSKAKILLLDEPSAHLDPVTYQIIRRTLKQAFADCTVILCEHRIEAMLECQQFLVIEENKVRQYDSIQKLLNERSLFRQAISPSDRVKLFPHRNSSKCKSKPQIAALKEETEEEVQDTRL
T2 sequence (P13569 whole entry): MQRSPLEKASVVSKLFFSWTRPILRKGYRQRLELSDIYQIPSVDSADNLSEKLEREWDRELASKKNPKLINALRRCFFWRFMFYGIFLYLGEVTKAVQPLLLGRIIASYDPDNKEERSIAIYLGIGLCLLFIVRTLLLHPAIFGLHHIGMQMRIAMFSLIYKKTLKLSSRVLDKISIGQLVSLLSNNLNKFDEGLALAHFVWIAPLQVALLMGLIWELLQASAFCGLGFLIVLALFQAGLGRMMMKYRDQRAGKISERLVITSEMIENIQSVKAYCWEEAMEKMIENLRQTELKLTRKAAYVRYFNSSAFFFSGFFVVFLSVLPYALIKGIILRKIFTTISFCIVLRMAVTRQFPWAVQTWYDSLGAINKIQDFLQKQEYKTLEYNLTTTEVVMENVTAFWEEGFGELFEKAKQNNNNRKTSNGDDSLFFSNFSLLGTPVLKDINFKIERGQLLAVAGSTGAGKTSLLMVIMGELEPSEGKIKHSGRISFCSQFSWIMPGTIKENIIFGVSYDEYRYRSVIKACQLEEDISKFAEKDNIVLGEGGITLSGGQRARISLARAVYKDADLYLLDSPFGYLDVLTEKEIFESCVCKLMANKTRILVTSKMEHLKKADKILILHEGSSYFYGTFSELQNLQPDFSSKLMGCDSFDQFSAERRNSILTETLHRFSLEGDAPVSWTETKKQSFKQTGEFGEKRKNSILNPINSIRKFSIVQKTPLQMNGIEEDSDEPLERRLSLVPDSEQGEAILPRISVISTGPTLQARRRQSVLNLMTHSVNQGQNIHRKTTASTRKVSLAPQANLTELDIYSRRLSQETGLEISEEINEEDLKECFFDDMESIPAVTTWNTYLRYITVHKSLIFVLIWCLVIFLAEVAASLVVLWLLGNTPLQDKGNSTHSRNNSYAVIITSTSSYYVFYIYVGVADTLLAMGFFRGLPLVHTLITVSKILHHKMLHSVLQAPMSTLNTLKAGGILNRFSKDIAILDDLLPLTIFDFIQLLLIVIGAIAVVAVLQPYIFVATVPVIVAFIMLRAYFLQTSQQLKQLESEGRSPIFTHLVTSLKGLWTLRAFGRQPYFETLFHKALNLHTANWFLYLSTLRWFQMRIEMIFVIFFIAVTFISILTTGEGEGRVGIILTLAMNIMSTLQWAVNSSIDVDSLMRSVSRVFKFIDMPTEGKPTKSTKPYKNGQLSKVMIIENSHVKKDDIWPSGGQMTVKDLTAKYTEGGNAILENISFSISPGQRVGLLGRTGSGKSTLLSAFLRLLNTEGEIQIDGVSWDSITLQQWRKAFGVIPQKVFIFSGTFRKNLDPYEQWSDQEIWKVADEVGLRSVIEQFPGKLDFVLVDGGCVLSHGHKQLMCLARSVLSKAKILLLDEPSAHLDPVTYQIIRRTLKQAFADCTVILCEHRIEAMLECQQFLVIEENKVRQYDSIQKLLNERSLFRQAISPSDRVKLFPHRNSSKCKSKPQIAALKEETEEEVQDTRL

Row | SMILES | ΔF508-CFTR stimulation activity among protein tyrosine kinase inhibitors (ΔF508-CFTR [1]) | inhibition of histidine kinase (histidine kinase) | increase of the maximal forskolin-dependent I- efflux response by genistein (ΔF508-CFTR [2]; 50 μM genistein, cells cultured at 27° C. for 3 days) [fold] | enhancement of ΔF508-CFTR channel activity by genistein (ΔF508-CFTR [3]) [fold] | channel activity at given CFTR phosphorylation level (CFTR) | stimulation of I- efflux in mock cells ([4]; 50 μM genistein) | stimulation of I- efflux in mock cells ([4]; 50 μM genistein plus 1 μM forskolin) | basal wt-CFTR activity (wt-CFTR [5]) | channel activation in cells lacking basal CFTR activity (wt-CFTR [5]) | deactivation of wt-CFTR currents after removal of cAMP-dependent stimulation (wt-CFTR [5]) | potentiation of cAMP-dependent wt-CFTR activity (wt-CFTR [5]) | steady-state phosphorylation of wt-CFTR (wt-CFTR [5]) | activation of wt-CFTR chloride channels (wt-CFTR [5]; variety of cells) | average increase in mean-current amplitude by genistein (wt-CFTR [6]) [fold] | EC50 (ΔF508-CFTR [2]) [nM] | stimulation of mutant ΔF508-CFTR (ΔF508-CFTR [2]) | maximal fold induction (ΔF508-CFTR [2]; mouse, read-out: maximal forskolin-dependent increase in I- efflux) | EC50 (ΔF508-CFTR [2]; read-out: K1/2 of forskolin for I- efflux in presence of genistein, with 50 μM genistein, cells cultured at 27° C. for 3 days) [nM] | activation at 10 µM (ΔF508-CFTR [2]; read-out: increase of I- efflux) [%] | stimulation of I- efflux in mock cells ([4]; 1 μM forskolin)
1 | O=c1c(-c2ccc(O)cc2)coc2cc(O)cc(O)c12 [Genistein, 4',5,7-trihydroxyisoflavone] | is the only protein tyrosine kinase inhibitor that has such an effect | inhibits | 3.7±0.4 | 19±11 | channel activity was greater in the presence of genistein | neither 1 μM forskolin, 50 μM genistein, nor 50 μM genistein plus 1 μM forskolin stimulated | neither 1 μM forskolin, 50 μM genistein, nor 50 μM genistein plus 1 μM forskolin stimulated | stimulates basal wt-CFTR activity | does not appear to activate the channel in cells that lack a basal CFTR activity | prevents deactivation of wt-CFTR channel currents | potentiates cAMP-dependent wt-CFTR channel activity | increases the steady-state phosphorylation level of wt-CFTR | activates wt-CFTR chloride channels | 3.1±0.7 | – | – | – | – | – | –
2 | C=C[C@@]1(C)CC(=O)[C@]2(O)[C@@]3(C)[C@@H](O)CCC(C)(C)[C@@H]3[C@H](O)[C@H](OC(C)=O)[C@@]2(C)O1 [forskolin] | – | – | – | – | – | – | – | – | – | – | – | – | – | – | 670 ± 260 | had little affect on mutant ΔF508-CFTR | 1.65 ± 0.08 | 16 ± 5 | < 15 | neither 1 μM forskolin, 50 μM genistein, nor 50 μM genistein plus 1 μM forskolin stimulated
